Laboratory results as given in patent US12459951B2, “Compounds that interact with RAS superfamily proteins for treatment of cancers, inflammatory diseases, rasopathies, and fibrotic disease” (SHY Therapeutics, LLC, priority 2022, dated 2025).

What was measured:
Erk1/2 phosphorylation = test: Erk1/2 Phosphorylation Assay (western blot), Panc-1; format: cell-based, human; details: at 10 μM, * = activation
Outline: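 Phospho-Erk1/2 (Thr202/Tyr204) was detected by western blot in lysates of Panc-1 cells (KRas G12D). These had 6 h, 37° C exposure to 10 μM compound or a dilution series for IC50, in 0.3% DMSO. Cells were either starved overnight in 0.5% FBS with a 15-min 1.5 ng/ml EGF pulse, or kept unstimulated in 10% FBS.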

[1] = system: Smad2/Smad3 phosphorylation; test: Phospho-Smad2/3 Inhibition Assay (western blot), Panc-1; format: cell-based, human; details: at 10 μM, Panc-1 pancreatic cancer cell line; starred symbols = activation
Outline: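 Western blotting of lysates (15-50 μg protein) read phosphorylation of Smad2 Ser465/467 and Smad3 Ser423/425. Before lysis, Panc-1 cells got 1 h of 10 ng/ml TGF-b1 following 3 h compound exposure at 37° C (10 μM final, or serial dilutions for IC50, 0.3% DMSO) after overnight 0.5% FBS starvation.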

SMILES | % inh of Erk1/2 phosphorylation in Panc-1 (Erk1/2 phosphorylation) | % inh of Smad2/3 phosphorylation in Panc-1 [1]
CO[C@H]1C[C@H](Nc2nc(-c3nccn3C)nn3cc(-c4ccc(CN)cc4)c(-c4ccccc4)c23)C1.Cl [Compound 206, 6-(4-(Aminomethyl)phenyl)-N-((1r,3r)-3-methoxycyclobutyl)-2-(1-methyl-1H-imidazol-2-yl)-5-phenylpyrrolo[2,1-f][1,2,4]triazin-4-amine hydrochloride salt] | B (26-49% inhibition) | B (B = 26-45% inhibition)
CO[C@H]1C[C@H](Nc2nc(-c3nccn3C)nn3cc(-c4ccc(CCN)cc4)c(-c4ccccc4)c23)C1.Cl [Compound 207, 6-(4-(2-Aminoethyl)phenyl)-N-((1r,3r)-3-methoxycyclobutyl)-2-(1-methyl-1H-imidazol-2-yl)-5-phenylpyrrolo[2,1-f][1,2,4]triazin-4-amine hydrochloride salt] | D* (85-100% activation) | D (D = 76-100% inhibition)
CO[C@H]1C[C@H](Nc2nc(-c3nccn3C)nn3cc(-c4ccc(OCCN)cc4)c(-c4ccccc4)c23)C1.Cl [Compound 208, 6-(4-(2-Aminoethoxy)phenyl)-N-((1r,3r)-3-methoxycyclobutyl)-2-(1-methyl-1H-imidazol-2-yl)-5-phenylpyrrolo[2,1-f][1,2,4]triazin-4-amine hydrochloride salt] | C* (46-84% activation) | D (D = 76-100% inhibition)
COc1cccc(-c2cn3nc(-c4nccn4C)nc(N[C@H]4C[C@H](OC)C4)c3c2-c2ccccc2)c1C [Compound 209, 6-(3-methoxy-2-methylphenyl)-N-((1r,3r)-3-methoxycyclobutyl)-2-(1-methyl-1H-imidazol-2-yl)-5-phenylpyrrolo[2,1-f][1,2,4]triazin-4-amine] | D (85-100% inhibition) | D (D = 76-100% inhibition)
CO[C@H]1C[C@H](Nc2nc(-c3nccn3C)nn3cc(-c4cccc5c4CCO5)c(-c4ccccc4)c23)C1 [Compound 210, 6-(2,3-Dihydrobenzofuran-4-yl)-N-((1r,3r)-3-methoxycyclobutyl)-2-(1-methyl-1H-imidazol-2-yl)-5-phenylpyrrolo[2,1-f][1,2,4]triazin-4-amine] | D (85-100% inhibition) | D (D = 76-100% inhibition)
Cc1c(-c2ccn(C)n2)cn2nc(-c3nccn3C)nc(N)c12 [Compound 211, 5-Methyl-2-(1-methyl-1H-imidazol-2-yl)-6-(1-methyl-1H-pyrazol-3-yl)pyrrolo[2,1-f][1,2,4]triazin-4-amine] | A* (1-25% activation) | D (D = 76-100% inhibition)
Cn1ccnc1-c1nc(NS(C)(=O)=O)c2c(-c3ccccc3)c(-c3ccccc3)cn2n1 [Compound 212, N-(2-(1-Methyl-1H-imidazol-2-yl)-5,6-diphenylpyrrolo[2,1-f][1,2,4]triazin-4-yl) methanesulfonamide] | B* (26-49% activation) | C (C = 46-75% inhibition)
COCCCS(=O)(=O)Nc1nc(-c2nccn2C)nn2cc(-c3ccccc3)c(-c3ccccc3)c12 [Compound 213, 3-Methoxy-N-(2-(1-methyl-1H-imidazol-2-yl)-5,6-diphenylpyrrolo[2,1-f][1,2,4]triazin-4-yl)propane-1-sulfonamide] | D* (85-100% activation) | B (B = 26-45% inhibition)
CO[C@H]1C[C@H](S(=O)(=O)Nc2nc(-c3nccn3C)nn3cc(-c4ccccc4)c(-c4ccccc4)c23)C1 [Compound 214, (1r,3r)-3-Methoxy-N-(2-(1-methyl-1H-imidazol-2-yl)-5,6-diphenylpyrrolo[2,1-f][1,2,4]triazin-4-yl)cyclobutane-1-sulfonamide] | A* (1-25% activation) | D (D = 76-100% inhibition)
COc1ccnc(Nc2nc(-c3nccn3C)nn3cc(-c4ccn(CCNC(=O)CCCC[C@H]5SC[C@H]6NC(=O)N[C@H]65)n4)c(C)c23)c1 [Compound 215, N-(2-(3-(4-((4-methoxypyridin-2-yl)amino)-5-methyl-2-(1-methyl-1H-imidazol-2-yl)pyrrolo[2,1-f][1,2,4]triazin-6-yl)-1H-pyrazol-1-yl)ethyl)-5-((3aR,4R,6aS)-2-oxohexahydro-1H-thieno[3,4-d]imidazol-4-yl)pentanamide] | A* (1-25% activation) | C (C = 46-75% inhibition)
COc1ccnc(Nc2nc(-c3nccn3CCNC(=O)CCCC[C@H]3SC[C@H]4NC(=O)N[C@H]43)nn3cc(-c4ccn(C)n4)c(C)c23)c1 [Compound 216, N-(2-(2-(4-((4-methoxypyridin-2-yl)amino)-5-methyl-6-(1-methyl-1H-pyrazol-3-yl)pyrrolo[2,1-f][1,2,4]triazin-2-yl)-1H-imidazol-1-yl)ethyl)-5-((3aR,4R,6aS)-2-oxohexahydro-1H-thieno[3,4-d]imidazol-4-yl)pentanamide] | C* (46-84% activation) | C* (C* = 46-75% activation)
COc1ccnc(Nc2nc(-c3nccn3C)nn3cc(-c4c(F)cccc4OC)c(-c4ccccc4)c23)c1 [Compound 217, 6-(2-Fluoro-6-methoxyphenyl)-N-(4-methoxypyridin-2-yl)-2-(1-methyl-1H-imidazol-2-yl)-5-phenylpyrrolo[2,1-f][1,2,4]triazin-4-amine] | D* (85-100% activation) | C (C = 46-75% inhibition)
CO[C@H]1C[C@H](Nc2nc(-c3nccn3C)nn3cc(-c4cnccc4C)c(-c4ccccc4)c23)C1 [Compound 218, N-((1r,3r)-3-Methoxycyclobutyl)-2-(1-methyl-1H-imidazol-2-yl)-6-(4-methylpyridin-3-yl)-5-phenylpyrrolo[2,1-f][1,2,4]triazin-4-amine] | D* (85-100% activation) | B* (B* = 26-45% activation)
COc1cccc(-c2cn3nc(-c4nccn4C)nc(N[C@H]4C[C@H](OC)C4)c3c2-c2ccccc2)c1OC [Compound 219, 6-(2,3-Dimethoxyphenyl)-N-((1r,3r)-3-methoxycyclobutyl)-2-(1-methyl-1H-imidazol-2-yl)-5-phenylpyrrolo[2,1-f][1,2,4]triazin-4-amine] | D (85-100% inhibition) | D (D = 76-100% inhibition)
COc1ccnc(Oc2nc(-c3nccn3C)nn3cc(-c4ccn(C)n4)c(C)c23)c1 [Compound 220, 4-((4-Methoxypyridin-2-yl)oxy)-5-methyl-2-(1-methyl-1H-imidazol-2-yl)-6-(1-methyl-1H-pyrazol-3-yl)pyrrolo[2,1-f][1,2,4]triazine] | A (1-25% inhibition) | C (C = 46-75% inhibition)
Cc1c(-c2ccn(C)n2)cn2nc(-c3nccn3C)nc(Nc3cc4c(cn3)CCO4)c12 [Compound 221, N-(5-Methyl-2-(1-methyl-1H-imidazol-2-yl)-6-(1-methyl-1H-pyrazol-3-yl)pyrrolo[2,1-f][1,2,4]triazin-4-yl)-2,3-dihydrofuro[3,2-c]pyridin-6-amine] | A* (1-25% activation) | A (A = 1-25% inhibition)
Cc1c(-c2ccn(C)n2)cn2nc(-c3nccn3C)nc(Nc3cc(N4CCOCC4)ccn3)c12 [Compound 222, 5-Methyl-2-(1-methyl-1H-imidazol-2-yl)-6-(1-methyl-1H-pyrazol-3-yl)-N-(4-morpholinopyridin-2-yl)pyrrolo[2,1-f][1,2,4]triazin-4-amine] | A* (1-25% activation) | A* (A* = 1-25% activation)
COc1ccnc(N(C)c2nc(-c3nccn3C)nn3cc(-c4ccn(C)n4)c(C)c23)c1 [Compound 223, N-(4-Methoxypyridin-2-yl)-N,5-dimethyl-2-(1-methyl-1H-imidazol-2-yl)-6-(1-methyl-1H-pyrazol-3-yl)pyrrolo[2,1-f][1,2,4]triazin-4-amine] | A (1-25% inhibition) | B (B = 26-45% inhibition)
COc1ccc(Nc2nc(-c3nccn3C)nn3cc(-c4ccn(C)n4)c(C)c23)nc1 [Compound 224, N-(5-Methoxypyridin-2-yl)-5-methyl-2-(1-methyl-1H-imidazol-2-yl)-6-(1-methyl-1H-pyrazol-3-yl)pyrrolo[2,1-f][1,2,4]triazin-4-amine] | C* (46-84% activation) | 0 (0 = 0% inhibition)
COc1ccc(N(C)c2nc(-c3nccn3C)nn3cc(-c4ccn(C)n4)c(C)c23)nc1 [Compound 225, N-(5-Methoxypyridin-2-yl)-N,5-dimethyl-2-(1-methyl-1H-imidazol-2-yl)-6-(1-methyl-1H-pyrazol-3-yl)pyrrolo[2,1-f][1,2,4]triazin-4-amine] | B (26-49% inhibition) | 0 (0 = 0% inhibition)
Cc1ccc(Nc2nc(-c3nccn3C)nn3cc(-c4ccn(C)n4)c(C)c23)nc1 [Compound 226, 5-Methyl-2-(1-methyl-1H-imidazol-2-yl)-6-(1-methyl-1H-pyrazol-3-yl)-N-(5-methylpyridin-2-yl)pyrrolo[2,1-f][1,2,4]triazin-4-amine] | A* (1-25% activation) | D (D = 76-100% inhibition)
